# Results from patent US20080131920A1, “Ion flux in biological processes, and methods related thereto” (priority 2005, published 2008).
# Key:
# [1] = system: Xenopus tail regeneration; settings: compound in medium beginning immediately after tail amputation (stage 40-41)
# [2] = system: Sonic hedgehog (Shh), Nodal; assay: Sidedness of Shh and Nodal expression in chick embryos (in ovo culture, in situ hybridization); settings: in vivo
# Excerpt: We examined the effect of inhibiting H^+-V-ATPase activity on the expression of the early left-sided marker Sonic hedgehog (Shh). Inhibition of H^+-V-ATPase activity following treatment with concanamycin or DCCD specifically randomized the expression of Shh, as well as that of and the downstream marker Nodal. Compared to controls, in which these two markers are always left-sided, concanamycin induced aberrant sidedness of Shh expression in 67% and Nodal in 24% of embryos. Thus, as in Xenopus, H^+-V-ATPase is upstream of the known asymmetric gene cascade, and is required for normal LR patterning in chicks.
# To perform a pharmacological screen on chick embryos with minimal disturbance to normal morphogenesis, we optimized a chicken in ovo culture system. A small hole was made on the top of each egg (prior to incubation), and 5 ml of light albumin was removed. […]. Eggs were securely wrapped with Scotch tape, incubated at 37.5° C. to the desired stages, then fixed for analysis of laterality markers by in situ hybridization.
# Whole mount in situ hybridization (WISH) on Xenopus was performed according to standard methods. DNA used to transcribe in situ hybridization probes were XNr-1 (Lohr et al., 1998, Developmental Genetics 23: 194-202; Lowe et al., 1996, Nature 381: 158-161); cShh (Levin et al., 1995, Cell 82: 803-814); cNodal (Levin et al., 1995, Cell 82: 803-814).
# [3] = system: Xenopus embryos; type: in vivo; settings: treated from fertilization to stage 7; organs scored at stage 45
# [4] = system: Dugesia japonica; assay: Planarian regeneration, anterior-posterior phenotype (anteriorizing index) under GJC inhibition; type: in vivo
# Experimental: Regenerating worms were contacted with the compound at an early stage of regeneration (2 days after cutting). 1-10 μM heptanol was dissolved in the medium. […] At 7 days post-cutting, we assayed the worms for the morphology of blastemas.
# We next sought to ascertain whether the anteriorizing effect was dependent on the AP (anterior-posterior) level from which the fragment originated. Worms were amputated at four levels to make five body fragments: head, pre-pharyngeal, trunk (including the pharynx), post-pharyngeal and tail fragments.
# The asexual clonal strain GI of the planarian, Dugesia japonica, was used in these study. In all experiments, the worms were starved for 1 week before use.
# Intact worms 1-1.5 cm long were put into heptanol (or hexanol) solution (0.0045-0.006% vigorously vortexed into spring water) immediately prior to amputation to equilibrate the worms with the drug solution. The worms were amputated at four levels to generate the head, pre-pharyngeal, trunk (or “pharyngeal”), post-pharyngeal, and tail fragments. Worm fragments were incubated at 22° C. for 2 days. The heptanol solution was exchanged for fresh solution every day. The worms were then washed with water twice and incubated in worm water for 14-20 days to monitor the phenotypes.
# We developed a quantitative scheme allowing comparison of degree of anteriorization among groups of worms. Each worm was scored on the following scale by observing the posterior blastema: 0 points—normal (a normal worm with a fully-patterned tail), 1 point—weak anteriorization of posterior blastema (missing tail or bipolar pharynx), 2 points—stronger anteriorization of posterior blastema (incomplete ectopic head with eye structures), or 3 points—complete anteriorization of posterior blastema (bipolar head, where the ectopic head has complete development with 2 normal eyes). For each group of worms, we calculated an average score that is the sum of all scores for the worms divided by the total number of worms. For convenience, the index was scaled from 0 to 100 (final index=average score*100/3). On this scale, a group of worms that were all normal would score 0, while a group of worms all of which were fully double-head would score 100. This scheme was focused on ascertaining the extent of anteriorization as judged by external morphology.
SMILES,effect on rate or extent of tail regeneration [1],also measured
O=C(O)c1c2ccccc2cc2ccccc12 [9-anthracene-carboxylic acid],no effect,
CC1(C)[C@@H](O)CC[C@]2(C)[C@H]3C(=O)C=C4[C@@H]5C[C@@](C)(C(=O)O)CC[C@]5(C)CC[C@@]4(C)[C@]3(C)CC[C@@H]12 [18-β-glycyrrhetinic acid],no effect,
[Ba+2].[Cl-].[Cl-] [BaCl],absence of regeneration,
C(=NC1CCCCC1)=NC1CCCCC1 [DCCD],,expression of Shh and Nodal (sidedness) [2]: randomized
"CCN(c1nc(N)c(C(=O)NC(=N)N)nc1Cl)C(C)C [EIPA, Ethylisopropyl amiloride]",no effect,
O=C1CCC(N2Cc3ccccc3C2=O)C(=O)N1 (centres unmarked) [EM12],no effect,
Cc1nc2c(OCc3ccccc3)cccn2c1CC#N [SCH28080],no effect,
"COc1ccc2c(c1OC)CN1CCc3cc4c(cc3C1C2)OCO4 (centres unmarked) [THB, Tetrahydroberberine]",no effect,
N=C(N)NC(=O)c1nc(Cl)c(N)nc1N [amiloride],no effect,
CO/C1=C\C(C)=C\[C@@H](C)[C@@H](O)[C@@H](C)C/C(C)=C/C=C/[C@H](OC)[C@@H]([C@@H](C)[C@@H](O)[C@H](C)[C@@]2(O)C[C@@H](O)[C@H](C)[C@@H](C(C)C)O2)OC1=O [bafilomycin],,"heterotaxia, % of the embryos [3]: 36%"
CC1=NS(=O)(=O)c2cc(Cl)ccc2N1 [diazoxide],no effect,
COc1ccc(Cl)cc1C(=O)NCCc1ccc(S(=O)(=O)NC(=O)NC2CCCCC2)cc1 [glibenclamide],no effect,
CCCCCCCO [heptanol],no effect,"toxicity to the worms ([4]; 1-10 μM): not toxic; trunk fragments with anteriorization of both blastemas ([4]; 1-10 μM in the medium, scored 7 days post-cutting): 43%; complete bipolar heads ([4]; 1-10 μM, trunk fragments): 16%"
CCCCCCO [hexanol],,strong anteriorization of the posterior blastema ([4]; in vivo): never induced strong anteriorization; tail regeneration ([4]; in vivo): did inhibit tail regeneration
C[C@@H]1O[C@@H](O[C@H]2C[C@@H](O)[C@]3(CO)[C@H]4[C@H](O)C[C@]5(C)[C@@H](C6=CC(=O)OC6)CC[C@]5(O)[C@@H]4CC[C@]3(O)C2)[C@H](O)[C@H](O)[C@H]1O [ouabain],no effect,
CCOC(=O)c1cccc(N)c1 [tricaine],absence of regeneration,
